Reference: patent publication US20080153839A1, “USE OF ANISIC ACID FOR PROMOTING DESQUAMATION” (L'OREAL, priority 2006, published 2008)

Test system: stratum corneum of normal human skin fragments kept in survival
Experiment: Cohesion of the stratum corneum on skin kept in survival, histological slices stained with hemalun-eosin
Type: cell-based
Details: for % increase in desquamation relative to the control skin / Scores (histological evaluation of the cohesion of the horny layer, semi-quantitative scores): topical; for Scores (histological evaluation of the cohesion of the horny layer, semi-quantitative scores): average of 6 donors, score 0-4, the higher the score the lower the cohesion
Protocol: Fragments of normal human skin are obtained by plastic surgery from 6 different donors. They are placed in inserts, which are themselves positioned on culture wells containing culture medium specifically adapted for maintaining the skin fragments in survival (antibiotics, FCS). The anisic acid is applied topically according to the following protocol and in comparison with an untreated skin (control skin): • control skin • skin+[…] • skin+[…] The cohesion of the horny layer was evaluated using stained histological slices, according to the following semi-quantitative scores (evaluation on 10 to 15 fields at magnification 40): • score 0 absence of change of cohesion of the stratum corneum • score 1 slight reduction in cohesion of the stratum corneum • score 2 moderate reduction in cohesion of the stratum corneum • score 3 large reduction in cohesion of the stratum corneum • score 4 very large reduction in cohesion of the stratum corneum with exfoliation. An average is determined for each parameter from the results obtained on the 6 skin models. The statistical analysis is performed by means of the “reduced deviation” Student test or the paired samples test, with a risk of 5%.

[1] = 0.1% anisic acid, listed as anisic acid
[2] = 1% anisic acid, listed as anisic acid

Q: `COc1ccc(C(=O)O)cc1` [Anisic acid, 4-methoxybenzoic acid] was tested. Which “desquamating activity after topical application relative to the control skins” value (0.1% and 1%, histological reduction in the cohesion of the stratum corneum, no dose effect) did it give?
A: Its value is “significant desquamating activity”.

Q: And the “% increase in desquamation relative to the control skin” value (0.1% anisic acid)?
A: Its value is 95.9%.

Q: What about the “Scores (histological evaluation of the cohesion of the horny layer, semi-quantitative scores)” value (0.1% anisic acid) of the same compound?
A: Its value is 1.43 ± 0.7.

Q: What about the “Scores (histological evaluation of the cohesion of the horny layer, semi-quantitative scores)” value [1] of the same compound?
A: The value was 1.43.

Q: And the “% increase in desquamation relative to the control skin” value [1]?
A: Its value is 95.9%.

Q: And the “% increase in desquamation relative to the control skin” value (1% anisic acid)?
A: Its value is 115%.

Q: What about the “Scores (histological evaluation of the cohesion of the horny layer, semi-quantitative scores)” value (1% anisic acid) of the same compound?
A: Its value is 1.57 ± 0.4.

Q: What about the “Scores (histological evaluation of the cohesion of the horny layer, semi-quantitative scores)” value [2] of the same compound?
A: The value was 1.57.

Q: What about the “% increase in desquamation relative to the control skin” value [2] of the same compound?
A: The value was 115%.
